Here are results for two compounds from patent publication US8242166B2, “C(10) ethyl ester and C(10) cyclopropyl ester substituted taxanes” (Florida State University Research Foundation, Inc., priority 2008, dated 2012).

Series [1] relates to HCT116. In words: MTT cytotoxicity (IC50), HCT116. Format: cell-based. Conditions: Homo sapiens, HCT-116, 72 h, read-out: IN Vitro IC50 (nm) HCT116. On the procedure:
(§1) All cell lines were maintained in RPMI-1640 tissue culture medium (TCM, supplemented with antibiotics and 10% fetal bovine serum) and cultured at 37° C. in humidified air containing 5% CO2. To assess the antiproliferative effects of the test compounds, 172 μL of tumor cell suspension (1.45×10^4 cells/ml) were added to each well of a 96-well plate and incubated for 24 h at 37° C. in 5% CO2 in air to allow cells to adhere. Seven 2-fold drug dilutions in TCM/DMSO were performed in triplicate in separate 96-well plates and 28 μL was transferred to the wells containing tumor cells (200 μL final volume/0.1% DMSO). Plates were incubated for 72 h and cell viability was determined by adding 50 μL of warm TCM containing 5 mg/mL MTT (3-[4,5-dimethylthiazol-2-yl]-2,5-diphenyltetrazolium bromide) to each well and incubating for 1 h at 37° C. Plates were processed and the absorbances of the resulting solutions were measured by a plate reader at 570 nm. […] (GraphPad Prism version 4.00 for Windows). Studies were conducted by Taxolog, Inc., Tallahassee, Fla.

Series [2] relates to PANC-1. In words: MTT cytotoxicity (IC50), PANC-1. Format: cell-based. Conditions: Homo sapiens, 72 h, read-out: IN Vitro IC50 (nm) Panc. On the procedure: as §1, with “Compound 17932 was tested in four of these cell lines, while the remaining compounds were tested in all of these cell lines. All” for “All”
In series [3] the test system is DLD-1. Description: MTT cytotoxicity (IC50), DLD-1. The format is cell-based. Conditions: Homo sapiens. On the procedure:
as §1, with “Compound 17932 was tested in four of these cell lines, while the remaining compounds were tested in all of these cell lines. All” for “All”

Series [4] has as its system HT29. In words: MTT cytotoxicity (IC50), HT29. The format is cell-based. Conditions: Homo sapiens, HT-29, 72 h, read-out: IN Vitro IC50 (nm) HT29. On the procedure:
as §1, with “Compound 17932 was tested in four of these cell lines, while the remaining compounds were tested in all of these cell lines. All” for “All”

Series [5] deals with HT29 human tumor xenografts. Description: HT29 xenograft study e139 (Example 23). Format: in vivo, nude mice.
Series [6] deals with 786-0. In words: MTT cytotoxicity (IC50), 786-0. Format: cell-based. Conditions: Homo sapiens. On the procedure:
as §1, with “Compound 17932 was tested in four of these cell lines, while the remaining compounds were tested in all of these cell lines. All” for “All”

Series [7] deals with A375. Description: MTT cytotoxicity (IC50), A375. Conditions: Homo sapiens, A-375. The format is cell-based. On the procedure:
as §1, with “Compound 17932 was tested in four of these cell lines, while the remaining compounds were tested in all of these cell lines. All” for “All”

In series [8] the test system is A549. Description: MTT cytotoxicity (IC50), A549. The format is cell-based. Conditions: Homo sapiens, 72 h, read-out: IN Vitro IC50 (nm) A549. On the procedure:
as §1, with “Compound 17932 was tested in four of these cell lines, while the remaining compounds were tested in all of these cell lines. All” for “All”

The test system of series [9] is TK-10. Description: MTT cytotoxicity (IC50), TK-10. Conditions: Homo sapiens, 72 h, read-out: IN Vitro IC50 (nm) TK10. Format: cell-based. On the procedure: as §1, with “Compound 17932 was tested in four of these cell lines, while the remaining compounds were tested in all of these cell lines. All” for “All”
The test system of series [10] is MALME-3. Description: MTT cytotoxicity (IC50), MALME-3. The format is cell-based. Conditions: Homo sapiens, 72 h, read-out: IN Vitro IC50 (nm) Malme3. Here is the method:
as §1, with “Compound 17932 was tested in four of these cell lines, while the remaining compounds were tested in all of these cell lines. All” for “All”

The test system of series [11] is OVCAR4. Description: MTT cytotoxicity (IC50), OVCAR4. The format is cell-based. Conditions: Homo sapiens, OVCAR-4, 72 h, read-out: IN Vitro IC50 (nm) OVCAR4. On the procedure: as §1, with “Compound 17932 was tested in four of these cell lines, while the remaining compounds were tested in all of these cell lines. All” for “All”
For series [12], the system named is HOP-18. Description: MTT cytotoxicity (IC50), HOP-18. The format is cell-based. Conditions: Homo sapiens, 72 h, read-out: IN Vitro IC50 (nm) HOP18. Here is the method:
as §1, with “Compound 17932 was tested in four of these cell lines, while the remaining compounds were tested in all of these cell lines. All” for “All”

Series [13] concerns SK-MEL-28. In words: MTT cytotoxicity (IC50), SK-MEL-28. The format is cell-based. Conditions: Homo sapiens, 72 h, read-out: IN Vitro IC50 (nm) ske-mel28. On the procedure:
as §1, with “Compound 17932 was tested in four of these cell lines, while the remaining compounds were tested in all of these cell lines. All” for “All”

Series [14] concerns SNB-19. In words: MTT cytotoxicity (IC50), SNB-19. The format is cell-based. Conditions: Homo sapiens, 72 h, read-out: IN Vitro IC50 (nm) SNB19. Here is the method:
as §1, with “Compound 17932 was tested in four of these cell lines, while the remaining compounds were tested in all of these cell lines. All” for “All”

Series [15] has as its system human HT29 colon carcinoma xenografts.
[16] abbreviates: MTT, 72 h, read-out: IN Vitro IC50 (nm) DLD1.
Where [17] appears, read: Resistance MDR1+, read-out: DLD1 Colon (Table 4, quantity not named; IC50 values as Table 2).

The structures appear in SMILES notation. Read-outs that look alike come from different tables or passages of the source.

As to `CC(=O)O[C@@]12CO[C@@H]1C[C@H](O)[C@@]1(C)C(=O)[C@H](OC(=O)C3CC3)C3=C(C)[C@@H](OC(=O)[C@H](O)[C@@H](NC(=O)OC4CCCC4)c4cccs4)C[C@@](O)([C@@H](OC(=O)c4ccccc4)C12)C3(C)C` (stereo partly shown) [Compound 17932], the IC50 worked out at 0.6 nM in [1]; 1.2 nM in series [2]; 1.4 nM in series [3] (setting [16]); 1.4 nM in series [3] (setting [17]); 0.9 nM in series [4]. Moreover, the “MTV (Day 61)” value in [5] (20 mg/kg i.v. q4d×4) amounted to 78 mm^3. Further, the PR responses in series [5] (20 mg/kg i.v. q4d×4, six mice) turned out to be 5. Also, the “Day 51 mm^3 (tumor size)” value in [5] (20 mg/kg iv q4d × 4) is on record as 99.7 mm^3. Besides, the “Day 54 mm^3 (tumor size)” value in series [5] (20 mg/kg iv q4d × 4) is 109.4 mm^3. Moreover, in [5] (20 mg/kg iv q4d × 4), the “Max. BW Loss %; Day” value is −19.3%; Day 16. For the same compound, in series [5] (20 mg/kg iv q4d × 4, N=6), the “Number of Death NTR” value came to 0. In addition, the “Number of Death TR” value in series [5] (20 mg/kg iv q4d × 4, N=6) is listed as 0.
In the case of `CC(=O)O[C@H]1C(=O)[C@@]2(C)[C@H]([C@H](OC(=O)c3ccccc3)[C@]3(O)C[C@H](OC(=O)[C@H](O)[C@@H](NC(=O)c4ccccc4)c4ccccc4)C(C)=C1C3(C)C)[C@]1(OC(C)=O)CO[C@@H]1C[C@@H]2O` [Paclitaxel, paclitaxel, reference compound], the IC50 was 4.1 nM in series [2]; more than 10 nM in [3] (setting [16]); 41 nM in series [3] (setting [17]); 2.8 nM in [4]; more than 10 nM in series [6] (MTT, 72 h, read-out: IN Vitro IC50 (nm) 786-0); more than 10 nM in [6] (Resistance MDR1+, read-out: 786-0 Renal (Table 4, quantity not named; IC50 values as Table 2)). The IC50 in series [7] (MTT, 72 h, read-out: IN Vitro IC50 (nm) A375) is 8 nM; in series [7] (Resistance MRP9, read-out: A375 Melanoma (Table 4, quantity not named; IC50 values as Table 2)), 8 nM; in series [8] it was 3.8 nM; in [9], 4.8 nM; in series [10], 6.5 nM; in series [11], 2.9 nM. Moreover, the IC50 amounted to 7.2 nM in [12], 5.4 nM in series [13] and 6.1 nM in series [14]. For the same compound, in series [15] (30 mg/kg q4d×4), the “antitumor activity” value is recorded as “relatively weak activity”. Moreover, the “D 38 TTE” value in [15] (mouse, in vivo) was 27.5 ± 1.9 (6) days. Further, in series [15] (mouse, in vivo), the “Number of Death NTR” value stood at 0. For the same compound, the “Number of Death TR” value in series [15] (mouse, in vivo) was 0.
